Experimental data reported in US6930088B2, “Conformationally constrained backbone cyclized somatostatin analogs” (Peptor Ltd., priority 1998, dated 2005).
Entries after “also recorded” stand apart in the source; their conditions may differ.

Key:
SSTR-1 = target: T1, SSTR-1 (Homo sapiens, UniProt P30872); experiment: Inhibition of 125I-Tyr11-SRIF binding to membrane preparations expressing SSTR-1; details: read-out: Percent inhibition of SRIF-14 binding
T1 construct: expressed in transfected cells
Description: The somatostatin analogs were tested for their potency in inhibition of the binding of ^125I-Tyr^11-SRIF (based on the method described by Raynor et. al., Molecular Pharmacology, 1993, 43, 838-844) to membrane preparations expressing the transmembranal somatostatin receptors (SSTR-1, 2, 3, 4 or 5). The receptor preparations used for these tests were either from the cloned human receptors selectively and stably expressed in Chinese Hamster Ovary (CHO) cells or from cell lines naturally expressing the SSTRs. […] The binding reactions were filtered, the filters were washed and the bound radioactivity was counted in gamma counter. Non specific binding was defined as the radioactivity remaining bound in the presence of 1 μM unlabeled SRIF-14.
(§1) In order to validate positive signals of the binding tests, and to eliminate non-specific signals, samples of irrelevant peptides, such as GnRH, that were synthesized and handled using the same procedures, were tested in the same assays as negative control samples. These samples had no binding activity in any of the assays. Results are shown below in Tables 5 and 6 and FIG. 1.

SSTR-2 = target: T2, SSTR-2 (Homo sapiens, UniProt P30874); experiment: Inhibition of 125I-Tyr11-SRIF binding to membrane preparations expressing SSTR-2; details: read-out: Percent inhibition of SRIF-14 binding
T2 construct: expressed in transfected cells
Description: (§2) The receptor preparations used for these tests were either from the cloned human receptors selectively and stably expressed in Chinese Hamster Ovary (CHO) cells or from cell lines naturally expressing the SSTRs. […] The binding reactions were filtered, the filters were washed and the bound radioactivity was counted in gamma counter. Non specific binding was defined as the radioactivity remaining bound in the presence of 1 μM unlabeled SRIF-14.
as §1

SSTR-5 = target: T3, SSTR-5 (Homo sapiens, UniProt P35346); experiment: Inhibition of 125I-Tyr11-SRIF binding to membrane preparations expressing SSTR-5; details: read-out: Percent inhibition of SRIF-14 binding
T3 construct: expressed in transfected cells
Description: as §2, §1

glucagon release = experiment: In-vivo effect on glucagon release; design: species or system Wistar male rats
Description: In-vivo determination of the release of glucogon as a result of peptide administration was measured in Wistar male rats.
Time course profiles for glucagon release under constant experimental conditions were measured.
Male Wistar rats were fasted overnight. Animals were anesthetized with Nembutal (IP, 60 mg/kg). Ten minutes after anesthesia, drugs were administrated S.C. at 0.01-100 microgram/kg dose. Stimulation of glucagon secretion was performed by I.V. administration of L-arginine, 0.5 g/kg, 5 minutes before blood collection from portal vein. Hormone concentration was measured by RIA.

[1] = system: human Carcinoid BON-1 cells; experiment: Inhibition of cAMP in human Carcinoid BON-1 cells; type: cell-based; details: following Forskolin stimulation
Text: The activation of SST-R5 leads to the reduction of Adenylate Cyclase activity. Somatostatin receptors including type-5 receptors are expressed in the human Carcinoid derived cell line BON-1. This human cell culture served as an in-vitro discovery assay for novel Carcinoid therapeutics. Interaction of somatostatin analogs with Somatostatin receptors expressed in this system subsequently affects cellular functionality of BON-1.

[2] = system: Chromogranin A release from BON-1; experiment: Inhibition of Chromogranin A release from BON-1; type: cell-based; details: human Carcinoid cell line BON-1
Text: Assessment of Chromogranin A release from BON-1 is an important assay aimed at identifying potential anti Carcinoid drugs. Chromagranin A is one of the principal mediators in degranulation of tumor granules, which secrete excessive amounts of vasoactive substances from Carcinoid tumors.

[3] = system: other G-protein coupled receptors; experiment: Binding to non-somatostatin G-protein coupled receptors; details: screening vs. Octreotide and SRIF
Text: This characteristic is of great advantageous because binding to non-somatostatin receptors could cause potential adverse effects in the body.
NovaScreen (Hanover, Md.) performed an assessment for nonspecific binding to various G-protein coupled receptor families. Binding studies to Neurokinin, Opiate and Muscarinic receptors were based on a comparison between the native hormone Somatostatin, Ocreotide and PTR 3173.

[4] = Initial safety testing in rodents; type: in vivo; details: dose 10,000-fold higher then the efficacious dose for inhibiting Growth hormone release
Description: PTR 3173 was tested in various species for its initial safety properties. Under the European Pharmacopoeia requirements for safety testing, it was declared a safe drug candidate at this stage of development.

[5] = Pharmacokinetics following IV & SC administration; details: for dose excreted: urine

T1 sequence (P30872 whole entry): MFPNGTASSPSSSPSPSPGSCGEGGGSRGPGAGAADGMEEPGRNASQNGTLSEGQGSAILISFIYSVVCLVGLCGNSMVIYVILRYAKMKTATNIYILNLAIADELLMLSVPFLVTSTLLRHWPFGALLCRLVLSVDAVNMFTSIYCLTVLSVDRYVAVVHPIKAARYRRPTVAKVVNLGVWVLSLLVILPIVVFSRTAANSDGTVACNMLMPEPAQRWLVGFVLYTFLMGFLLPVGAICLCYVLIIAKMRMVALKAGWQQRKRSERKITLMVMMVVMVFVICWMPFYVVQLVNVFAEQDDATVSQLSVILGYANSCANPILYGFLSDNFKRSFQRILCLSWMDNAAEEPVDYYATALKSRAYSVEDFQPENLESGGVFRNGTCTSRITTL
T3 sequence (P35346 whole entry): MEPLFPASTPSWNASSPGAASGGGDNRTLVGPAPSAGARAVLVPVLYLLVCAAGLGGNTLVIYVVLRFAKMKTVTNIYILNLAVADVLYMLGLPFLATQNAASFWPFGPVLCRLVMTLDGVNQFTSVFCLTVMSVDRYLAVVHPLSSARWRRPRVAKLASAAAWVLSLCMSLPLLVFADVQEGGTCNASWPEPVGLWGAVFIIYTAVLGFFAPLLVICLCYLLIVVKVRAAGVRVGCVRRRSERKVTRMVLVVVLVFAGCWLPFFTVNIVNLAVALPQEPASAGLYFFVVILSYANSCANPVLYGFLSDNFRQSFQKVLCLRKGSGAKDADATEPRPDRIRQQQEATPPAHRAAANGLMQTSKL
T2 sequence (P30874 whole entry): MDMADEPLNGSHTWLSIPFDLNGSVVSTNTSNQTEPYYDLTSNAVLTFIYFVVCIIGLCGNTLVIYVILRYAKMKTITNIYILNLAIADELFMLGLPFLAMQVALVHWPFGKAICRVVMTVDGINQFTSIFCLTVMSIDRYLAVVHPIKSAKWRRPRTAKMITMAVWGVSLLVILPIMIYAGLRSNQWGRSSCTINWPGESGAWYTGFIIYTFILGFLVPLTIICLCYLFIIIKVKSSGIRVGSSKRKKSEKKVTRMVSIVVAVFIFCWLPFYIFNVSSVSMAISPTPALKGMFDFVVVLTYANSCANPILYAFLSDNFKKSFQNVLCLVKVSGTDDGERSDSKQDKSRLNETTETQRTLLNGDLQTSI

SMILES: C[C@@H](O)[C@@H]1NC(=O)[C@H](CCCCN)NC(=O)[C@@H](Cc2c[nH]c3ccccc23)NC(=O)[C@H](Cc2c[nH]c3ccccc23)NC(=O)[C@H](Cc2ccccc2)NC(=O)CCCNC(=O)CCCN(CC(N)=O)C(=O)[C@H](Cc2ccccc2)NC1=O [PTR 3173, GABA*-Phe-Trp-(D)Trp-Lys-Thr-Phe-Gly(C3)-X]
- inhibition at 10 pM (SSTR-1): 0%
- inhibition at 0.0001 µM (SSTR-1): 0%
- inhibition at 0.001 µM (SSTR-1): 0%
- inhibition at 0.01 µM (SSTR-1): 0%
- inhibition at 0.1 µM (SSTR-1): 5%
- inhibition at 1 µM (SSTR-1): 15%
- inhibition at 10 pM (SSTR-2): 15%
- inhibition at 0.0001 µM (SSTR-2): 30%
- inhibition at 0.001 µM (SSTR-2): 42%
- inhibition at 0.01 µM (SSTR-2): 80%
- inhibition at 0.1 µM (SSTR-2): 95%
- inhibition at 1 µM (SSTR-2): 96%
- inhibition at 10 pM (SSTR-5): 20%
- inhibition at 0.0001 µM (SSTR-5): 48%
- inhibition at 0.001 µM (SSTR-5): 63%
- inhibition at 0.01 µM (SSTR-5): 82%
- inhibition at 0.1 µM (SSTR-5): 95%
- inhibition at 1 µM (SSTR-5): 95%
- effect on glucagon levels compare to control (glucagon release; 100 micrograms per kilogram, FIG. 4): statistically significant difference in glucagon levels compare to control
- Glucagon ID50 (glucagon release; Table 4, physiological selectivity): >0.1 mg/kg
- effect on glucagon (general statement) (glucagon release; in words, no dose stated): considerably lower affect on the release of glucagon than Octreotide; also recorded: much less activity on glucagon
- GH Glucagon (glucagon release; ratio of ID50 values, Table 4): >1,000
- inhibition of cAMP production [1]: equipotent to clinically used drug Octreotide
- inhibition of Chromogranin A release [2]: inhibits Chromogranin A release; also recorded: significant anti-release effect; also recorded: equivalent potency with the native hormone Somatostatin
- binding to other G-protein coupled receptors [3]: binds significantly less other G-protein coupled receptors than Octreotide
- toxicity signs [4]: No toxicity signs
- Clearance ([5]; SC, Conscious Wistar rats): 13.3 mL/min/kg
- Clearance ([5]; Wistar, rat, in vivo, iv): 13 mL/min/kg
- Vd ([5]; Wistar, rat, in vivo, iv): 0.653 L/kg
- half-life ([5]; Wistar, rat, in vivo, iv, T½β (min) circulating half life, Conscious Wistar rats): 0.517 h
- bioavailability ([5]; Wistar, rat, in vivo, sc): 99.6%
- half-life ([5]; Wistar, rat, in vivo, sc, T½β (min) circulating half life, Conscious Wistar rats): 2.83 h
- half-life ([5]; Wistar, rat, in vivo, sc, circulatory half-life, subcutaneous administration to rats): ~3 h
- dose excreted ([5]; Wistar, rat, iv): 10.3%
- dose excreted ([5]; Wistar, rat, sc): 15.9%
- pharmacokinetic profile ([5]; subcutaneous administration, animals): flip flop (a slow release kinetic) pharmacokinetcs
